This is an account of results in ChEMBL document CHEMBL5154660, “Straightforward access to novel mitochondriotropics derived from 2-arylethanol as potent and selective antiproliferative agents” (Eur J Med Chem, 2022).

SMILES strings stand for the structures. Calls of active or inactive are those of the source. The rule behind the calls is not given here.

For one data set, the system named is SW1573. The experiment in a line: Antiproliferative activity against human SW1573 cells assessed as reduction in cell growth. The format is functional.
The test system of another data set is HeLa. Description: Antiproliferative activity against human HeLa cells assessed as reduction in cell growth. The format is functional.
In another data set the test system is T47D. Description: Antiproliferative activity against human T47D cells assessed as reduction in cell growth. The class given is functional.
A short description of data set [1]: Antiproliferative activity against human hTERT-BJ cells assessed as reduction in cell growth. The format is toxicity, cell-based.
The subject of a further data set is WiDr. Description: Antiproliferative activity against human WiDr cells assessed as reduction in cell growth. The format is functional.
For a further data set, the system named is HBL-100. The experiment in a line: Antiproliferative activity against human HBL-100 cells assessed as reduction in cell growth. The format is functional.
A further data set concerns A549. The experiment in a line: Antiproliferative activity against human A549 cells assessed as reduction in cell growth. The class given is functional.
Data set [2] has as its system NCI-H460. Description: Cell cycle arrest in human NCI-H460 cells assessed as decrease in accumulation at G1 phase at 600 nM measured after 48 hrs by propidium iodide staining based flow cytometry analysis. The format is functional. On the technique in general: In flow cytometry, cells or beads pass a laser one at a time.
In data set [3] the test system is NCI-H460. Description: Induction of mitochondrial membrane potential loss in human NCI-H460 cells assessed as depolarization of mitochondrial membrane at 600 nM incubated for 24 hrs by JC-1 staining based flow cytometry assay. The format is functional, cell-based.
Data set [4] has as its system NCI-H460. The experiment in a line: Cell cycle arrest in human NCI-H460 cells assessed as increase in accumulation at G2/M phase at 600 nM measured after 48 hrs by propidium iodide staining based flow cytometry analysis. The class given is functional.
Data set [5] concerns NCI-H460. Description: Cell cycle arrest in human NCI-H460 cells assessed as increase in accumulation at subG1 phase at 600 nM measured after 48 hrs by propidium iodide staining based flow cytometry analysis. The class given is functional.
The test system of data set [6] is NCI-H460. Description: Induction of mitochondrial membrane potential loss in human NCI-H460 cells assessed as depolarization of mitochondrial membrane at 600 nM incubated for 48 hrs by JC-1 staining based flow cytometry assay. The class given is functional, cell-based.
Data set [7] concerns NCI-H460. The experiment in a line: Antiproliferative activity against human multi-drug resistant NCI-H460/R cells overexpressing P-glycoprotein assessed as reduction in cell growth measured after 48 hrs by sulforhodamine B assay. The class given is functional.
In data set [8] the test system is NCI-H460. The experiment in a line: Induction of apoptosis in human NCI-H460 cells assessed as increase in necrotic cells at 600 nM incubated for 48 hrs by annexin-V-FITC and PI staining based flow cytometry analysis (reference value: 2 %). The format is functional.
For data set [9], the system named is NCI-H460. Description: Antiproliferative activity against human NCI-H460 cells assessed as reduction in cell growth measured after 48 hrs by sulforhodamine B assay. The class given is functional.
Data set [10] is described as follows: Resistant index, ratio of GI50 for human multi-drug resistant NCI-H460/R cells to GI50 for human NCI-H460 cells. The format is functional.
The test system of data set [11] is NCI-H460. Description: Cell cycle arrest in human NCI-H460 cells assessed as increase in accumulation at S phase at 600 nM measured after 48 hrs by propidium iodide staining based flow cytometry analysis. The format is functional.
Data set [12] in a line: Antiproliferative activity against human MRC5 cells assessed as reduction in cell growth measured after 48 hrs by sulforhodamine B assay. The format is toxicity, cell-based. On the technique in general: In SRB staining, fixed cells bind dye roughly in proportion to their protein.
In data set [13] the test system is NCI-H460. The experiment in a line: Antiproliferative activity against human multi-drug resistant NCI-H460/R cells overexpressing P-glycoprotein assessed as cell growth inhibition in presence of tariquidar measured after 48 hrs by sulforhodamine B assay. The class given is functional. Conditions: dose 0.01-100 µM.

As usually defined, the GI50 is the concentration at which growth is held to half of that of the control. Take `c1ccc(COc2ccc(CCOCCCCCCCCCCCC[P+](c3ccccc3)(c3ccccc3)c3ccccc3)cc2OCc2ccccc2)cc1`: the GI50 amounted to 320 nM in the data set with SW1573; 330 nM with HeLa; 500 nM with T47D; 3500 nM in data set [1]; 450 nM in the data set with WiDr; 240 nM in the data set on HBL-100. Moreover, the 50% growth inhibitory concentration (GI50) in the data set on A549 was found to be 170 nM.
For the molecule `c1ccc(COc2ccc(CCOCCCCCC[P+](c3ccccc3)(c3ccccc3)c3ccccc3)cc2)cc1`, the GI50 in the data set on SW1573 is 120 nM; with HeLa, 180 nM; with T47D, 200 nM; in [1], 3100 nM; with WiDr, 240 nM; with HBL-100 it was 250 nM. Moreover, the GI50 in the data set with A549 was 120 nM.
Turning to `COc1ccc(CCOCCCCC[P+](c2ccccc2)(c2ccccc2)c2ccccc2)cc1`, the GI50 stood at 370 nM in the data set with SW1573; 390 nM in the data set with HeLa; 310 nM in the data set with T47D; 28000 nM in [1]; 330 nM with WiDr; 520 nM with HBL-100. Further, the GI50 in the data set on A549 turned out to be 400 nM.
In the case of `COc1ccc(CCOCCCCCCCCCCCC[P+](c2ccccc2)(c2ccccc2)c2ccccc2)cc1OC`, the GI50 turned out to be 170 nM with SW1573; 210 nM in the data set on HeLa; 210 nM with T47D; 4300 nM in [1]; 220 nM in the data set with WiDr; 260 nM in the data set on HBL-100. Further, the GI50 with A549 came to 26 nM.
`O=c1[nH]cc(F)c(=O)[nH]1` [FLUOROURACIL]: the concentration for 50% growth inhibition (GI50) in the data set on SW1573 came out at 3300 nM; with HeLa it was 16000 nM; in the data set on T47D it was 43000 nM; in [1] it was 5500 nM; with WiDr it was 49000 nM; in the data set on HBL-100, 4400 nM. The GI50 with A549 turned out to be 2200 nM.
As for `c1ccc([P+](CCCCCCCCCCCCOCCc2ccc3c(c2)OCO3)(c2ccccc2)c2ccccc2)cc1`, the GI50 amounted to 170 nM in the data set on SW1573; 220 nM in the data set with HeLa; 180 nM in the data set with T47D; 4600 nM in data set [1]; 190 nM in the data set on WiDr; 210 nM in the data set with HBL-100. For the same molecule, in the data set with A549, the GI50 came out at 59 nM.
As to `COc1ccc(CCOCCCCCCCCCCCC[P+](c2ccccc2)(c2ccccc2)c2ccccc2)cc1`, the concentration for 50% growth inhibition (GI50) in the data set on SW1573 was 250 nM; in the data set on HeLa, 320 nM; in the data set with T47D it was 290 nM; in [1], 3600 nM; with WiDr, 320 nM; in the data set on HBL-100, 340 nM. In addition, the GI50 with A549 was determined as 180 nM.
As for `c1ccc(CCOCCCCC[P+](c2ccccc2)(c2ccccc2)c2ccccc2)cc1`, the GI50 in the data set on SW1573 stood at 330 nM; with HeLa, 310 nM; with T47D, 220 nM; in [1], 32000 nM; with WiDr, 220 nM; with HBL-100, 440 nM. Further, the GI50 in the data set with A549 stood at 370 nM.
For the molecule `COc1ccc(CCOCCCCCC[P+](c2ccccc2)(c2ccccc2)c2ccccc2)cc1`, the concentration for 50% growth inhibition (GI50) in the data set on SW1573 was 220 nM; in the data set with HeLa it was 270 nM; with T47D, 200 nM; in data set [1], 30000 nM; in the data set with WiDr, 230 nM; with HBL-100, 370 nM. The GI50 with A549 is 260 nM.
As to `COc1ccc(CCOCCCCCC[P+](c2ccccc2)(c2ccccc2)c2ccccc2)cc1OC`, the 50% growth inhibitory concentration (GI50) is 490 nM in the data set on SW1573; 420 nM in the data set with HeLa; 460 nM in the data set with T47D; 34000 nM in [1]; 380 nM with WiDr; 550 nM with HBL-100. Moreover, the GI50 in the data set on A549 was 740 nM.
On to `c1ccc(COc2ccc(CCOCCCCC[P+](c3ccccc3)(c3ccccc3)c3ccccc3)cc2OCc2ccccc2)cc1`, for which the GI50 in the data set on SW1573 was 230 nM; in the data set on HeLa it was 270 nM; in the data set on T47D, 310 nM; in [1], 3500 nM; in the data set on WiDr, 310 nM; in the data set with HBL-100 it was 200 nM. For the same molecule, the GI50 in the data set on A549 was determined as 130 nM.
For `c1ccc(COc2ccc(CCOCCCCCC[P+](c3ccccc3)(c3ccccc3)c3ccccc3)cc2OCc2ccccc2)cc1`, the GI50 with SW1573 stood at 350 nM; in the data set with HeLa, 320 nM; with T47D it was 810 nM; in data set [1], 3300 nM; with WiDr, 1000 nM; with HBL-100, 470 nM. Further, the GI50 in the data set with A549 is 250 nM.
With `c1ccc(COc2ccc(CCOCCCCC[P+](c3ccccc3)(c3ccccc3)c3ccccc3)cc2)cc1`, the concentration for 50% growth inhibition (GI50) in the data set on SW1573 turned out to be 89 nM; with HeLa, 77 nM; in the data set on T47D it was 190 nM; in data set [1] it was 2900 nM; with WiDr, 180 nM; in the data set with HBL-100, 84 nM. Besides, the GI50 in the data set on A549 was found to be 88 nM.
In the case of `c1ccc(COc2ccc(CCOCCCCCCCCCCCC[P+](c3ccccc3)(c3ccccc3)c3ccccc3)cc2)cc1`, the 50% growth inhibitory concentration (GI50) is 420 nM in the data set on SW1573; 600 nM with HeLa; 570 nM with T47D; 3300 nM in data set [1]; 770 nM in the data set with WiDr; 370 nM with HBL-100. Further, the GI50 in the data set with A549 came out at 450 nM.
For the molecule `[Br-].c1ccc(CCOCCCCCC[P+](c2ccccc2)(c2ccccc2)c2ccccc2)cc1`, the result in the data set with NCI-H460 [2], in the data set on NCI-H460 [3], with NCI-H460 [4], with NCI-H460 [5], in the data set on NCI-H460 [6] and with NCI-H460 [11] was Active. Further, the GI50 was determined as 160 nM in the data set on SW1573; 170 nM with HeLa; 140 nM with T47D; 4600 nM in the data set on NCI-H460 [7]; 570 nM with NCI-H460 [9]; 35000 nM in data set [1]. Also, the GI50 in the data set on WiDr is 140 nM; with HBL-100, 260 nM; with A549, 130 nM; with NCI-H460 [13], 610 nM. Also, the Activity in the data set with NCI-H460 [8] was 37%. Moreover, in [10], the RatioGI50 is reported as 8.1. Further, the GI50 at 48 h in [12] worked out at 15300 nM.
`c1ccc(CCOCCCCCCCCCCCC[P+](c2ccccc2)(c2ccccc2)c2ccccc2)cc1`: the GI50 is 250 nM in the data set with SW1573; 330 nM with HeLa; 270 nM with T47D; 4400 nM in data set [1]; 260 nM with WiDr; 290 nM with HBL-100. Besides, the GI50 in the data set with A549 is 170 nM.
For `[Br-].c1ccc([P+](CCCCCCOCCc2ccc3c(c2)OCO3)(c2ccccc2)c2ccccc2)cc1`, the outcome in the data set on NCI-H460 [2], in the data set on NCI-H460 [3], in the data set with NCI-H460 [4], in the data set on NCI-H460 [5], with NCI-H460 [6] and with NCI-H460 [11] was Active. The 50% growth inhibitory concentration (GI50) in the data set with SW1573 turned out to be 350 nM; in the data set on HeLa it was 350 nM; with T47D, 270 nM; in the data set with NCI-H460 [7] it was 3600 nM; with NCI-H460 [9], 600 nM; in data set [1] it was 43000 nM. Moreover, the GI50 with WiDr came to 240 nM; with HBL-100, 580 nM; in the data set with A549, 870 nM; with NCI-H460 [13] it was 590 nM. For the same molecule, the Activity in the data set with NCI-H460 [8] is 27%. Moreover, the RatioGI50 in data set [10] came out at 6. In addition, the GI50 at 48 h in data set [12] was 62700 nM.
With `c1ccc([P+](CCCCCOCCc2ccc3c(c2)OCO3)(c2ccccc2)c2ccccc2)cc1`, the GI50 in the data set with SW1573 stood at 640 nM; in the data set on HeLa, 540 nM; in the data set on T47D it was 360 nM; in data set [1], 37000 nM; with WiDr, 330 nM; with HBL-100, 680 nM. Also, in the data set with A549, the GI50 was 1400 nM.
As for `COc1ccc(CCOCCCCC[P+](c2ccccc2)(c2ccccc2)c2ccccc2)cc1OC`, the GI50 in the data set with SW1573 was determined as 2100 nM; in the data set with HeLa, 2300 nM; in the data set with T47D it was 2000 nM; in [1] it was 57000 nM; in the data set on WiDr it was 1500 nM; in the data set with HBL-100, 4200 nM. In the data set with A549, the GI50 is 3400 nM.
